Test results published in article PMC7663597, “Structure–Activity Relationship of Aloperine Derivatives as New Anti–Liver Fibrogenic Agents” (Molecules, 2020).

Key:
COL1A1 promotor = COL1A1 promotor luciferase reporter gene assay in TGF-β1-treated LX-2 cells; type: cell-based, human; conditions: for inhibition at 40 µM / inhibition at 80 µM: LX-2, 24 h; for inhibition at 40 µM: 24 h with TGF-β1, read-out: Inhibition Percentage 40 μM (inhibition rate of COL1A1 promotor's activity); for inhibition at 80 µM: 24 h with TGF-β1, read-out: Inhibition Percentage 80 μM (inhibition rate of COL1A1 promotor's activity)
Method: A single luciferase reporter gene detection model was applied to evaluate the inhibitory effects of all target compounds on the expression of COL1A1 promotor in human hepatic stellate LX-2 cells at the concentrations of 40 and 80 μM, taking EGCG as the positive control. The LX-2 cell lines were transfected with COL1A1 promotor luciferase plasmid pGL4.17-COL1A1P for 24 h, then simultaneously treated with TGF-β1 and a tested compound for 24 h.
(§1) Cells were maintained on Dulbecco’s Modified Eagle’s medium (DMEM), laid on 96-well plate. DMEM medium was supplemented with 10% fetal bovine serum (FBS) at 37 °C humidified atmosphere with 5% CO2. Furthermore, serum-free culture was required until the cells were confluent at 90−95%. 24 h later the cells were treated with a tested compound (40 and 80 μM) for 24 h. The COL1A1 promotor activity was detected by the Bright-Glo luciferase assay system. Alternatively, to test the acute effects of compound on luciferase activity, 24 h later the cells were lysed and the lysate was treated with a tested compound (80 μM) for 2 h, then the luciferase was detected by the Bright-Glo luciferase assay system (Promega, Madison, WI, USA).

luciferase = molecular target: T1, luciferase (Photinus pyralis, UniProt P08659, K549A/L550V/N119G/N50D/S548I); experiment: Acute effect on luciferase activity (cell lysate, 2 h); type: biochemical; conditions: 80 μM, 2-h treatment
T1 construct: expressed in transfected cells; host or cells: human hepatic stellate LX-2 cells transfected with pGL4.17-COL1A1P; lysate used
Method: Then, their anti-COL1A1 potencies were verified by testing the half maximal inhibition concentration (IC50) values upon COL1A1 expression expression in LX-2 cells. […] Then, compounds 4i, 4n and 4p with the lower IC50 values were selected as the key compounds for further studies.
as §1

[1] = LX-2 cell survival, sulforhodamine B (SRB) assay; type: cell-based; conditions: human, LX-2 cells
Method: LX-2 cell survival was measured by sulforhodamine B (SRB) assay. The cells were seeded in 96-well plates at the density of 2 × 10^4/well and cultured in DMEM/GlutaMAX I medium with 10% fetal bovine serum (FBS) with 5% CO2, 37 °C. The cells were treated by the aloperine derivates for 24 h, washed by PBS for three times. Then the cells were fixed with 10% (wt/vol) trichloroacetic acid for 1 h and stained with SRB for 0.5 h. Subsequently, the protein-bound dye was dissolved in 10 mM Tris base solution after removing excess SRB dye washing repeatedly with 1% (vol/vol) acetic acid, the optical density (OD) was determined at 510 nm with a microplate reader.

[2] = HepG2 cell survival, MTT assay; type: cell-based; conditions: human, HepG2 cells
Method: HepG2 cell survival was measured by MTT assay. HepG2 cells, at density of 6x10^3 cells/well in 96-well culture plates, were incubated with the aloperine derivates at various concentrations until the cells at 50% confluence for 24 h. 20 µL of the MTT (5 mg/mL) solution was added to each plate and incubated with 5% CO2, 37 °C for 4 h. Subsequently, withdrawing the culture supernatant containing MTT, 150 µL DMSO was used for dissolving the formazan crystal. The absorbance was measured using a microplate reader at 570 nm.

COL1A1 mRNA = experiment: RT-PCR of COL1A1 mRNA in LX-2 cells; type: cell-based, human; conditions: 24 h
Method: (§2) In the absence or presence of TGF-β1 (2 ng/mL) treatment, LX-2 cells were treated with key compounds 4n and 4p at concentrations of 6 μM and 12 μM, or 4i at a concentration of 12 μM, respectively.
LX-2 cells were laid on 6-well plate and cultured in DMEM supplemented with 10% fetal bovine serum (FBS) in a 5% CO2 atmosphere at 37 °C. And serum-free culture was required until the cells reached 90−95% confluence. […] Total RNA of the LX-2 cells was isolated using TRIzol reagent, purified using NucleoSpin RNA Clean-up. Reverse transcription was performed with Transcriptor first strand cDNA synthesis kit. Subsequently, the cDNA levels was determined by ABI 7500 Fast Real-Time PCR System using TaqMan probes of COL1A1, TGF-β1, α-SMA, and GAPDH (sequence not disclosed by ABI) and FastStart Universal Probe master mix (Roche, Indianapolis, IN, USA).

TGFB1 mRNA = experiment: RT-PCR of TGFB1 mRNA in LX-2 cells; type: cell-based, human; conditions: TGF-β1 (2 ng/mL) stimulation, 12 μM, 24 h
Method: as §2
Since the stimulation of TGF-β1 provokes the expression of a series of fibrosis genes, for example COL1A1 and TGFB1 [24, 25], the effects of key compounds on TGF-β1 expression were evaluated by RT-PCR and western blot assays. As shown in Figure 2B and Supplementary Table S1, the expression of TGFB1 mRNA was maintained at a low level, and the addition of a key compound seemed to have little effect on its expression.
LX-2 cells were laid on 6-well plate and cultured in DMEM supplemented with 10% fetal bovine serum (FBS) in a 5% CO2 atmosphere at 37 °C. And serum-free culture was required until the cells reached 90−95% confluence. After 24 h, cells were incubated with […] concentrations of aloperine derivatives in the presence of 2 ng/mL of TGF-β1 for 24 h. Total RNA of the LX-2 cells was isolated using TRIzol reagent, purified using NucleoSpin RNA Clean-up. Reverse transcription was performed with Transcriptor first strand cDNA synthesis kit. Subsequently, the cDNA levels was determined by ABI 7500 Fast Real-Time PCR System using TaqMan probes of COL1A1, TGF-β1, α-SMA, and GAPDH (sequence not disclosed by ABI) and FastStart Universal Probe master mix (Roche, Indianapolis, IN, USA).

in vivo = conditions: both sexes, Kunming, mouse, po
Method: To evaluate the safety profiles of the key compounds 4i, 4n and 4p, an acute toxicity test was performed in Kunming mice. Compound 4i was given orally in a single-dosing experiment at 100, 300 and 400 mg kg^−1, while 4n at 300, 400, 500 mg kg^−1, and 4p at 200, 400, 500 mg kg^−1. The mice were closely monitored for 7 days.
Male and Female Kunming mice with weight of 20.0 ±1.0 g were obtained from the Institute of Laboratory Animal Science (Beijing, China). Animals wer e cared according to the institutional guidelines of the Institute of Medicinal Biotechnology, CAMS&PUMC (IMB-20190610D3), and fed with regular rodent chow and housed in an air conditioned room. The mice were randomly divided into different groups with four male mice and four female mice each. Each compound was given orally in a single-dosing experiment, the dose of 4i was 100, 300 and 400 mg kg^−1, the dose of 4n was 300, 400, 500 mg kg^−1, the dose of 4p was 200, 400, 500 mg kg^−1 (ddH2O as control). The mice were closely monitored for 7 days. Body weight as well as survival was monitored.

T1 sequence (P08659 whole entry N50D/N119G/S548I/K549A/L550V): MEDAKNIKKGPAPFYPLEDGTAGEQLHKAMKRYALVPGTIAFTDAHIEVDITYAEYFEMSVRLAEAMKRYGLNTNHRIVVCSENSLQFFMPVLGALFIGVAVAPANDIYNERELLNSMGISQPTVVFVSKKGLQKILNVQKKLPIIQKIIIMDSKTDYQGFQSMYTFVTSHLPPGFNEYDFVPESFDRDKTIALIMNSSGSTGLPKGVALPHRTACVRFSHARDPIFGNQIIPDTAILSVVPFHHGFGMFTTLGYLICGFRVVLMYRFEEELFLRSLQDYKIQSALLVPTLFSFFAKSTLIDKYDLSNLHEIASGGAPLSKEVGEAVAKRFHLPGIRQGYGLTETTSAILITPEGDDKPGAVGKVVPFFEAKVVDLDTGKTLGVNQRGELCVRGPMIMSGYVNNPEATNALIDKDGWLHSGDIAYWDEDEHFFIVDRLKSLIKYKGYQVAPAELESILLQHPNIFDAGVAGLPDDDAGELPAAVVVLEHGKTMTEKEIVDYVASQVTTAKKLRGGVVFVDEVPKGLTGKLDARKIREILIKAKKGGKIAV

SMILES: O=C(CN1CCCC2=C[C@H]3C[C@H](CN4CCCC[C@H]34)[C@@H]21)Nc1cc(Cl)cc(OC(F)(F)F)c1 [4i, 12N-N′-(3-Chloro-5-trifluoromethoxyphenyl)carbamoylmethyl aloperine]
- inhibition at 40 µM (COL1A1 promotor; Homo sapiens, 40 μM): 99.9%
- inhibition at 80 µM (COL1A1 promotor; Homo sapiens): 99.9%
- IC50 (COL1A1 promotor; Homo sapiens, read-out: IC50 (concentration required to inhibit 50% of COL1A1 promotor's activity)): 8.4 ± 0.3 µM
- Acute effect on luciferase activity (luciferase): minimal inhibition
- CC50 at 24 h [1]: 19.5 ± 1.8 µM
- CC50 at 24 h [2]: 22 ± 4.6 µM
- Inhibitory rate of COL1A1 transcription (mRNA) (COL1A1 mRNA; TGF-β1 (2 ng/mL) stimulation, 12 μM): 97.4%
- Inhibitory rate of COL1A1 transcription (mRNA) (COL1A1 mRNA; absence of TGF-β1, 12 μM): 45%
- Inhibitory rate of TGFB1 mRNA expression (TGFB1 mRNA): 75.4%
- LD50 at 7 days (in vivo): 100 mg/kg

SMILES: O=C(CN1CCCC2=C[C@H]3C[C@H](CN4CCCC[C@H]34)[C@@H]21)Nc1ccc(-c2cc3ccccc3[nH]2)cc1 [4h, 12N-N′-[4-(1H-Indol-2-yl)phenyl]carbamoylmethyl aloperine]
- IC50 (concentration required to inhibit 50% of COL1A1 promotor's activity) (COL1A1 promotor): failed to give a dose-dependent inhibition
- Inhibition Percentage 40 μM (inhibition rate of COL1A1 promotor's activity) (COL1A1 promotor; 40 μM, 24 h with TGF-β1): 100.0 ± 0.0%
- inhibition at 40 µM (COL1A1 promotor; Homo sapiens, 40 μM): 99.9%
- inhibition at 80 µM (COL1A1 promotor; Homo sapiens): 99.9%
- Acute effect on luciferase activity (luciferase): minimal inhibition
- CC50 at 24 h [1]: 7.5 ± 0.4 µM
- CC50 at 24 h [2]: 18 ± 1.9 µM
- melting point: 219 to 221 °C
